Data set [1] has as its target human recombinant PDE-4D2 (Homo sapiens, UniProt Q08499). The data set is described as follows: PDE4-D2 assay (Compounds of Formula I), SPA. Type of data set: biochemical. To be noted: for inhibition at 30 µM: relative to Ro 20-1724; for IC50: 4-parameter logistical fit, two technical replicates. Here is the method: (§1) 20 mins after addition of human recombinant PDE-4B1 (1.2 IEU) or PDE-4D2 (1.5 IEU), SPA beads were added and incubated at 22° C. for a further 30 mins. [^3H]5′AMP was quantified by a standard scintillation counting method.

Data set [2] has as its target T1, human serotonin transporter (Homo sapiens, UniProt P31645). To be noted: for inhibition: 10 µM.
Protocol: (§2) Following incubation, [^3H] serotonin uptake was quantified by a standard scintillation counting method.
In data set [3] the target is human recombinant PDE-4B1 (Homo sapiens, UniProt Q07343). Kind of data set: PDE4-B1 assay (Compounds of Formula I), SPA. It is filed as biochemical. To be noted: for inhibition at 30 µM: relative to Ro 20-1724; for IC50: 4-parameter logistical fit, two technical replicates. Here is the method:
as §1

Data set [4] concerns the target T1, human serotonin transporter. Kind of data set: cell-based.
Protocol: as §2
Another data set deals with T2, PDE-4A1A (Homo sapiens, UniProt P27815).
T2 construct: purchased Sigma SRP0262
T2 sequence (P27815 1-647 isoform P27815-4): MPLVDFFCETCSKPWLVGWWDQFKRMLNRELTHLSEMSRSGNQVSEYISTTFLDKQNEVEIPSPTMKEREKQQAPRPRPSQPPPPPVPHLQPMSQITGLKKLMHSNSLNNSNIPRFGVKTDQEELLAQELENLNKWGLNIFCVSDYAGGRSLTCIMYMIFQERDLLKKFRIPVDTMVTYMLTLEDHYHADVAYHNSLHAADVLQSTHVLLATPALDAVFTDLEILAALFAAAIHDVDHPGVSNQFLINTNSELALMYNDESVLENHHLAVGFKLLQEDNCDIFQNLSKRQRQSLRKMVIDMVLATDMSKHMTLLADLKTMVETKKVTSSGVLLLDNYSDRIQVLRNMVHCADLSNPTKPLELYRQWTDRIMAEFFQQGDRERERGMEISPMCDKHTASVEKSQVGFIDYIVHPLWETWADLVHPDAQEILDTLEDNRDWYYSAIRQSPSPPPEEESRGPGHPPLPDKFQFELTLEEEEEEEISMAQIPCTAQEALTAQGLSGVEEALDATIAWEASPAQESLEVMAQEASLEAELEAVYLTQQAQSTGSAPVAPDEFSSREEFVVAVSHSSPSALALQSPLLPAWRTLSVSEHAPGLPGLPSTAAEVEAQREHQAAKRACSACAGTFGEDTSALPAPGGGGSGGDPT
The data set is described as follows: PDE-41A assay (Compounds of Formula II), AMP-Glo. Type of data set: biochemical. Here is the method:
PDE-41A assays were performed using the AMP-Glo™ Assay Kit, (Promega-V5012) human recombinant […] (Sigma, SRP0262) according to recommended protocols. […]

In the next data set the target is T3, hSERT (Homo sapiens, UniProt P31645).
T3 construct: expressed in transfected cells
T3 sequence (P31645 whole entry): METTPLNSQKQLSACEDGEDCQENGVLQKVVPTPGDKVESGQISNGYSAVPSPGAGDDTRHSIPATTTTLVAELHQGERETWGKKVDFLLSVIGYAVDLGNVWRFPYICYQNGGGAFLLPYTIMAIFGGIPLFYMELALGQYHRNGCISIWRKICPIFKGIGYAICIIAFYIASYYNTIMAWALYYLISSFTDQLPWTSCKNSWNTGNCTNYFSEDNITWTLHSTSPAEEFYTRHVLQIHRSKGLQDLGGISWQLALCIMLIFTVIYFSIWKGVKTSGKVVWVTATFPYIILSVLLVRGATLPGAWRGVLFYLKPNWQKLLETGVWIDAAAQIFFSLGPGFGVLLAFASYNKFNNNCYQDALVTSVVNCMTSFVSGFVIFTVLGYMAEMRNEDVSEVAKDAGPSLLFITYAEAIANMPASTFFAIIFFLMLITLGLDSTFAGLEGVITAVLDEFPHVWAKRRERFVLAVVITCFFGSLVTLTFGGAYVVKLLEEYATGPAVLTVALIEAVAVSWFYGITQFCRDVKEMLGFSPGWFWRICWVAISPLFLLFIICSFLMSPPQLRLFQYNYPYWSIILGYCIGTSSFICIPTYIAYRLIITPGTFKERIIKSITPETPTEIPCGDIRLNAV
The data set is described as follows: SERT assay (Compounds of Formula II), transporter uptake assay kit. It is filed as cell-based. Here is the method:
SERT assays were performed using a standard transporter uptake assay kit, (Molecular devices, (R8174)). In short, test compounds (10 nM-30 μM), reference compound or vehicle control were added to cells stably expressing hSERT (20,000/well) in assay buffer containing HBSS (20 mM) and BSA (0.1% (w/v)) for 30 mins at 30° C. Assay plates were incubated in the presence of dye for a further 60 mins at 37° C. and intracellular fluorescence intensity was determined.

The next data set is described as follows: in vivo. Also on record: species or system male C57Bl/6J mice. To be noted: male, C57Bl/6J, mouse, ip, 30 mg/kg. Here is the method:
Groups of 18 male C57Bl/6J mice (weighing between 22.7 and 27.3 g) received a single administration of test compound (30 mg/kg; i.p.) in methylcellulose (0.5% w/v) at a nominal concentration of […].
Three mice from each dose group were subject to cardiac puncture under general anesthesia at 0.25, 0.50, 1.00, 1.50, 2.00 and 4.00 hours post-dose and plasma samples generated for application of standard LC-MS/MS bioanalytical methods.
Quantitation of compound concentration was derived from reference calibration data. Pharmacokinetic data were derived from serial plasma concentrations.

The record followed here is US20250091992A1, “NOVEL COMPOUNDS AND USES THEREOF” (KANNA HEALTH LIMITED, priority 2021, published 2025).

Where two headings read alike, the source gives them in different places.

human recombinant PDE-4B1, sequence (Q07343 whole entry): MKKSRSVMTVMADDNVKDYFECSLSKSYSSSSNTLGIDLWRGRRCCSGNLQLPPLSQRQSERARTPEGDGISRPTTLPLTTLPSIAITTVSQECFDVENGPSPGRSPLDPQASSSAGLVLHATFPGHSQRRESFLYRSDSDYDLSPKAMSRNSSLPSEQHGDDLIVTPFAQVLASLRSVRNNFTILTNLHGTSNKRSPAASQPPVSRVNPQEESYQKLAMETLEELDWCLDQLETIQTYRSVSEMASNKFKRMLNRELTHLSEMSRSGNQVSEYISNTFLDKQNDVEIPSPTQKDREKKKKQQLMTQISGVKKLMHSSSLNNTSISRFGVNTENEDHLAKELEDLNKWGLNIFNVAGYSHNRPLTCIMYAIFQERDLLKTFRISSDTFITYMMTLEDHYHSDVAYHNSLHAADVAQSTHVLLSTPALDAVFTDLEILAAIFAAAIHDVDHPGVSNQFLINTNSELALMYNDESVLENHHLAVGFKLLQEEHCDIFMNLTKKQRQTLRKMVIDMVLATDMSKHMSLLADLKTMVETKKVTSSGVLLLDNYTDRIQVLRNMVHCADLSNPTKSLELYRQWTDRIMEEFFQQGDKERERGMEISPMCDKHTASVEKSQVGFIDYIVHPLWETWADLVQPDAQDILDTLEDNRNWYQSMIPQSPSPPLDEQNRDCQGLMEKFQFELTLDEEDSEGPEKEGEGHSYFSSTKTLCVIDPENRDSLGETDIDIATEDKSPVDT
T1 sequence (P31645 whole entry): as the sequence (P31645 whole entry) above
human recombinant PDE-4D2, sequence (Q08499 303-809): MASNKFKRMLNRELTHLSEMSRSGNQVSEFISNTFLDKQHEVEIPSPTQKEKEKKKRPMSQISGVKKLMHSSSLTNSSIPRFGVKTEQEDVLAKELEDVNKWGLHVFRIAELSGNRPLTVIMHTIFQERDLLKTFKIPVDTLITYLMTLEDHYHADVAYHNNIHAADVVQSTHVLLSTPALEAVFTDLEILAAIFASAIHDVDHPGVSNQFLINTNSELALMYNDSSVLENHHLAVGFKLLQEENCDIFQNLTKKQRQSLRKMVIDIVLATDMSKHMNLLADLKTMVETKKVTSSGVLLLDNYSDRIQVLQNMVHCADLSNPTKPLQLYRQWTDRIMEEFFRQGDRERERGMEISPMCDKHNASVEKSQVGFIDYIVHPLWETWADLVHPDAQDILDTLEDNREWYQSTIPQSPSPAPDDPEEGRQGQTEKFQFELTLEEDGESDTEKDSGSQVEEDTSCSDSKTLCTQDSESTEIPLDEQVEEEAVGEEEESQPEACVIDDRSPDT

What is called inhibition is the drop in the measured response relative to a control, in per cent. With `CCOc1ccc([C@@]23CCC(=O)C[C@@H]2N(C)CC3)cc1O` [Compound 16], the inhibition at 30 µM is 3% in data set [1] and -1% in data set [3]. Also, the inhibition in data set [2] is 98%.
In general, IC50 refers to the concentration that inhibits the measured activity by half. For the compound `C#CCOc1cc([C@@]23CCC(=O)C[C@@H]2N(C)CC3)ccc1OC` [Compound 15], the IC50 in data set [1], in data set [3] and in data set [4] was under 3 µM each time.
Regarding `COc1ccc([C@@]23CCC(=O)C[C@@H]2N(C)CC3)cc1O` [Compound 10], the IC50 is over 30 µM in data set [1], 0.3 µM in data set [2] and over 30 µM in data set [3].
For `CCCCOc1cc([C@@]23CCC(=O)C[C@@H]2N(C)CC3)ccc1OCC1CC1` [Compound 37], the IC50 in data set [1] was over 30 µM; in data set [2], 0.8 µM; in data set [3] it was over 30 µM.
As to `CN1CC[C@]2(c3ccc(OCC4CC4)c(OC4CCCC4)c3)CCC(=O)C[C@H]12` [Compound 39], the IC50 is over 30 µM in data set [1], 4.5 µM in data set [2] and over 30 µM in data set [3].
On to `CCOc1ccc([C@@]23CCC(=O)C[C@@H]2N(C)CC3)cc1OC` [Compound 31], for which the IC50 in data set [4] is under 0.1 µM.
In the case of `CCOc1ccc([C@@]23CCC(=O)C[C@@H]2N(C)CC3)cc1OC1CCCCC1` [Compound 23], the inhibition at 30 µM in data set [1] is 93%; in data set [3], 88%. Besides, the inhibition in data set [2] amounted to 77%.
Take `CCOc1cc([C@@]23CCC(=O)C[C@@H]2N(C)CC3)ccc1OC(C)C` [Compound 29]: the inhibition at 30 µM in data set [1] turned out to be 32%; in data set [3], 40%. In addition, the inhibition in data set [2] came to 99%.
For the compound `COc1ccc([C@@]23CCC(=O)C=C2N(C)CC3)cc1OC` [Compound 41], the IC50 is over 3 µM in data set [1], over 3 µM in data set [3] and under 3 µM in data set [4].
Regarding `CSc1cc([C@@]23CCC(=O)C[C@@H]2N(C)CC3)ccc1OC(C)C` [Compound 25], the 50% inhibitory concentration (IC50) in data set [1] and in data set [3] was over 30 µM each time.
In the case of `CCCCOc1cc([C@@]23CCC(=O)C[C@@H]2N(C)CC3)ccc1OC(C)C` [Compound 30], the inhibition at 30 µM was found to be 31% in data set [1] and 24% in data set [3]. The inhibition in data set [2] amounted to 95%.
Take `COc1ccc([C@@]23CCC(=O)C[C@@H]2N(C)CC3)cc1OCc1ccccc1` [Compound 12]: in data set [4], the IC50 was over 10 µM.
As for `COc1ccc([C@]23CCC(=O)C[C@H]2N(C)CC3)cc1OC` [Compound 45], in data set [1], the concentration for half-maximal inhibition (IC50) was under 3 µM.
With `CC(C)Oc1ccc([C@@]23CCC(=O)C[C@@H]2N(C)CC3)cc1OC1CCCC1` [Compound 28], the figures for the inhibition at 30 µM in data set [1] and in data set [3] were 55% and 53%, respectively. Besides, the inhibition in data set [2] amounted to 98%.
Consider `COc1ccc([C@@]23CCC(=O)C=C2N(C)CC3)cc1OC1CCCC1` [Compound 42], for which the IC50 in data set [1] was under 3 µM; in data set [3], over 3 µM; in data set [4] it was over 3 µM.
Consider `CCOc1ccc([C@@]23CCC(=O)C[C@@H]2N(C)CC3)cc1SC` [Compound 17], for which the values for the inhibition at 30 µM in data set [1] and in data set [3] were 74% and 61%, respectively. Moreover, the inhibition in data set [2] was determined as 99%.
As for `CCCCOc1cc([C@@]23CCC(=O)C[C@@H]2N(C)CC3)ccc1OCC` [Compound 20], the inhibition at 30 µM in data set [1] came to 92%; in data set [3], 83%. Further, in data set [2], the inhibition worked out at 100%.
For `CN1CC[C@]2(c3ccc(OCC4CC4)c(O)c3)CCC(=O)C[C@H]12` [Compound 33], the figures for the IC50 in data set [1], in data set [2] and in data set [3] were over 30 µM, 2.1 µM and over 30 µM, respectively.
As for `COc1ccc([C@@]23CCC(=O)C[C@@H]2N(C)CC3)cc1OC1CCCCC1` [Compound 14], the inhibition at 30 µM in data set [1] was determined as 97%; in data set [3], 94%. The inhibition in data set [2] was 59%.
On to `CC(C)Oc1ccc([C@@]23CCC(=O)C[C@@H]2N(C)CC3)cc1OC1CCCCC1` [Compound 26], for which the inhibition at 30 µM in data set [1] turned out to be 20%; in data set [3], 26%. Also, the inhibition in data set [2] stood at 81%.
For `COc1ccc([C@@]23CCC(=O)C[C@@H]2N(C)CC3)cc1OCC(F)(F)F` [Compound 4], the IC50 in data set [1] is 11.3 µM; in data set [3], 7.1 µM; in data set [4] it was under 0.1 µM.
As to `CC(C)Oc1ccc([C@@]23CCC(=O)C[C@@H]2N(C)CC3)cc1OCC1CC1` [Compound 22], the inhibition at 30 µM was 37% in data set [1] and 38% in data set [3]. Further, the inhibition in data set [2] was 91%.
For the compound `CCOc1cc([C@@]23CCC(=O)C[C@@H]2N(C)CC3)ccc1OCC1CC1` [Compound 35], the 50% inhibitory concentration (IC50) in data set [1] was over 30 µM; in data set [2], 0.2 µM; in data set [3], over 30 µM.
As to `COc1cc([C@@]23CCC(=O)C[C@@H]2N(C)CC3)ccc1OCC1CC1` [Compound 34], the IC50 is over 30 µM in data set [1], 0.9 µM in data set [2] and over 30 µM in data set [3].
With `COc1ccc([C@@]23CC[C@@H](OC(=O)C(C)C)C[C@@H]2N(C)CC3)cc1OC` [Compound 51], on PDE-4A1A, the inhibition at 30 µM came to 95% and the inhibition at 100 µM is 99%. Besides, at hSERT, the inhibition at 1 µM was 99% and the inhibition at 3 µM worked out at 98%.
In the case of `COc1ccc([C@]23CCC(=O)C=C2N(C)CC3)cc1OC` [Compound 40], the IC50 in data set [1], in data set [3] and in data set [4] was over 3 µM throughout.
For orientation: AUC(0-inf) means the area under the concentration-time curve extrapolated to infinity. Broadly, the Cmax is the maximum level reached in the sampled fluid or tissue. One may read the Tmax as the time from dosing to the highest level. The term half-life denotes how long it takes for the measured level to halve. A low value points to fast loss. For `CCOc1ccc([C@@]23CCC(=O)C[C@@H]2N(C)CC3)cc1OCC1CC1` [Compound 24], in “in vivo”, the total exposure AUC(0-inf) is 825 ng·h/mL, the highest level (Cmax) was 492 ng/mL, the Tmax stood at 15 min and the half-life is 76.8 min. Also, in data set [2], the half-maximal inhibitory concentration (IC50) came out at 0.02 µM and the inhibition was 91%.
Take `CC(C)Oc1ccc([C@@]23CCC(=O)C[C@@H]2N(C)CC3)cc1O` [Compound 18]: the inhibition at 30 µM was -3% in data set [1] and -4% in data set [3]. For the same compound, the inhibition in data set [2] was 86%.
Regarding `C=CCOc1cc([C@@]23CCC(=O)C=C2N(C)CC3)ccc1OC` [Compound 43], the IC50 in data set [1], in data set [3] and in data set [4] was over 3 µM in each case.
`COc1ccc([C@@]23C=C[C@@H](OC(=O)c4ccccc4)C[C@@H]2N(C)CC3)cc1OC` [Compound 60]: at PDE-4A1A, the inhibition at 30 µM amounted to 98% and the inhibition at 100 µM was 100%. In addition, at hSERT, the inhibition at 1 µM stood at 92% and the inhibition at 3 µM worked out at 95%.
As for `CCSc1cc([C@@]23CCC(=O)C[C@@H]2N(C)CC3)ccc1OC` [Compound 3], the IC50 in data set [1] stood at 1.3 µM; in data set [2], 0.005 µM; in data set [3], 5.2 µM.
On to `COc1cc([C@@]23CCC(=O)C[C@@H]2N(C)CC3)ccc1OC(C)C` [Compound 19], for which the inhibition at 30 µM in data set [1] worked out at 3%; in data set [3] it was 1%. Further, in data set [2], the inhibition came out at 99%.
Consider `CN1CC[C@]2(c3ccc(OCC4CC4)c(OCC4CC4)c3)CCC(=O)C[C@H]12` [Compound 36], for which the IC50 is over 30 µM in data set [1], 0.4 µM in data set [2] and over 30 µM in data set [3].
Consider `C=CCOc1cc([C@@]23CCC(=O)C[C@@H]2N(C)CC3)ccc1OCC1CC1` [Compound 38], for which the IC50 in data set [1] was over 30 µM; in data set [2], 0.4 µM; in data set [3] it was over 30 µM.
Take `CCOc1ccc(C23C=CC(=O)CC2N(C)CC3)cc1OCC` (stereo not shown) [Compound 44]: the concentration for half-maximal inhibition (IC50) in data set [1] was under 3 µM; in data set [3] it was under 3 µM; in data set [4] it was over 3 µM.
